“And” between values parts separate entries of the source, which are not always exact repeats. Equal entries are not always repeated.
Tests used:
LmNMT = LmNMT (Leishmania major, UniProt Q4Q5S8); experiment: biochemical; settings: read-out: IC50 LmNMT
LdNMT = target: T1, LdNMT (Leishmania donovani, UniProt D0AB09); experiment: NMT enzyme inhibition assay (non-radioactive), L. donovani NMT; assay type: biochemical; settings: for LE (ligand efficiency): LE = 1.4(-logLdNMT IC50)/N, N = number of non-H atoms; for IC50: read-out: IC50 LdNMT
T1 sequence (D0AB09 1-421): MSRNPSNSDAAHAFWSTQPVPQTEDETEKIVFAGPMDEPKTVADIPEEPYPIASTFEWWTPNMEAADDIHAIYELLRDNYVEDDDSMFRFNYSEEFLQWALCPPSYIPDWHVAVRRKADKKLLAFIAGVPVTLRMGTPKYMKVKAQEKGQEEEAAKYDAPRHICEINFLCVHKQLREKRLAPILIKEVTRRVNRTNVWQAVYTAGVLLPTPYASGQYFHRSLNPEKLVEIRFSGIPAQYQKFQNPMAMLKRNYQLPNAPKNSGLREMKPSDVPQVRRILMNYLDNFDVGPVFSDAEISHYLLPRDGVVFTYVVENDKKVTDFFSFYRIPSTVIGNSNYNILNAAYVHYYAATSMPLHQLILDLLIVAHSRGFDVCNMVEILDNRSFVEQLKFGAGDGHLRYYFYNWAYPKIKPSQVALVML

HsNMT1 = target: T2, HsNMT1 (Homo sapiens, UniProt P30419); experiment: NMT enzyme inhibition assay (non-radioactive), human NMT; assay type: biochemical; settings: for IC50: human NMT isoform 1 (HsNMT1), read-out: IC50 HsNMT; for selectivity factor: LdNMT IC50 versus human enzyme IC50
T2 sequence (P30419 1-496): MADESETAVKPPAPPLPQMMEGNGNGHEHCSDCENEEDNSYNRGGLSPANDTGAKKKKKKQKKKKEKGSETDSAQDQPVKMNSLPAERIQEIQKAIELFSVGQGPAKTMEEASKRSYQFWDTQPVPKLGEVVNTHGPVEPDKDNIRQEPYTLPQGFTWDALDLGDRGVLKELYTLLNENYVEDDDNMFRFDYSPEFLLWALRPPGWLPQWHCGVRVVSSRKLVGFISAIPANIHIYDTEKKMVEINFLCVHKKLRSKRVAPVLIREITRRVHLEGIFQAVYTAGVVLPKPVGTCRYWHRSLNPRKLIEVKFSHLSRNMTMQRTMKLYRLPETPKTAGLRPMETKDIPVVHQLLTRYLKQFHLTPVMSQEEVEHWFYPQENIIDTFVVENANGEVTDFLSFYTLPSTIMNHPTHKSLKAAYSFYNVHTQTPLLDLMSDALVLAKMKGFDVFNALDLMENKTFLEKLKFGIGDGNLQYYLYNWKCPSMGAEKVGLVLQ

Chain of LmNMT (Q4Q5S8 5-421 limits assumed): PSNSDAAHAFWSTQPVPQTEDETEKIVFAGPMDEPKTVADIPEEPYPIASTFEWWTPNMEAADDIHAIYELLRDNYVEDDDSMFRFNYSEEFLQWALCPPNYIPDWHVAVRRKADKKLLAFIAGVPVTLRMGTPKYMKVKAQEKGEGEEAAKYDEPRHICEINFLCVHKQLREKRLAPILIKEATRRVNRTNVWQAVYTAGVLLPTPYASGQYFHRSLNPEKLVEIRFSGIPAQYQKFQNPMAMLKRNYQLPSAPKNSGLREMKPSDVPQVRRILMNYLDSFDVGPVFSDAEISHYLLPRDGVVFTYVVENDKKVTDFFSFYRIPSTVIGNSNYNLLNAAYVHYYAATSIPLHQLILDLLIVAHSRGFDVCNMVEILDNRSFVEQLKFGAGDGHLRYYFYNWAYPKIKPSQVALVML

SMILES | IC50 (LmNMT) | LE (ligand efficiency) (LdNMT) | IC50 (LdNMT) | selectivity against HsNMT1 (HsNMT1; LdNMT over HsNMT1) | IC50 (HsNMT1) | selectivity factor (HsNMT1)
CN1CCC(N(C)c2nc(N(C)CCC#N)c3sccc3n2)CC1 [6KV] | 299 ± 89 nM | 0.34 | 250 nM and 247 nM | approximately tenfold | 3.56 ± 0.49 µM | 
N[C@@H](CC(=O)N1C[C@H](CO)[C@@H](c2ccc(Cl)cc2)C1)Cc1ccc(Cl)cc1 [A6K] | 31 ± 4 nM | 0.35 | 77 ± 7 nM |  | 5 µM and 5.16 µM | ~80
c1cncc(CCNCc2cccc(-c3cccc(CN4CCc5ncsc5C4)c3)c2)c1 [CWZ] | 1020 ± 100 nM | 0.29 | 900 nM and 914 nM |  | 45 µM and 45.5 µM | 50

Reference: PMC4107925, “Diverse modes of binding in structures of Leishmania major N-myristoyltransferase with selective inhibitors” (IUCrJ, 2014)
